Patent US20070166547A1, “Use of a layer consisting of hydrophobic linear, or two-dimensional polycyclic aromatics as a barrier layer or an encapsulation and electric components constructed with a layer of this type and comprising organic polymers” (priority 2003, published 2007)

Tests used:
[1] = Chronic toxicity, rectal suppositories: indexes of urine; details: rats, 1 month after the administration
Procedure: (§1) The experiments were conducted on inbred rats. The experimental animals were selected in groups by a method of random sampling taking into account the body mass as a determining index; 24 males or 24 females for one preparation from compounds 2, 15, 23, 34, 37 investigated in one dose.
(§2) Two doses of preparations used in the experiments: 50 mg/kg and 500 mg/kg. Before the administration, the suppositories were softened by heating in a glass water bath at a temperature of 38-39° C., the soft mass was collected in tuberculin syringe in a volume of 1 ml, a needle with oliva was attached to the syringe, and the preparatory mass was introduced into the rectum of the animal for a depth of 1.5-2.0 cm. The animals of the control group were administered with sterile medical liquid paraffin in a volume corresponding to the volume of the investigated suppository. A complete course of administration of drugs to the animals was two months. A complex of laboratory diagnostic investigations was carried out one month after the beginning of the administration of the preparation to the animal—in a middle of the course (8 animals), two months after ending the course (8 animals) and three months after ending the recovery period of one month (8 animals). The mass of the body of the rats in the first month of administration of the preparation was determined weekly, and then once in two weeks. On the basis of the dynamics of an index of the mass of the animal body, the volume of preparation being administered was corrected taking into account the test dose.

[2] = Chronic toxicity, rectal suppositories: biochemical indexes of blood serum; details: male rats, 1 month
Procedure: as §1, §2

Nc1ccnc2c(=O)n([C@@H]3O[C@H](CO)[C@@H](O)[C@H]3O)[nH]c(=O)c12 [Compound 2, 4-amino-7-(β-D-ribofuranosile)pyrido[2,3-d]-6H-pyridazine-5,8-dione]
Bilirubin (index of urine) ([1]; dose 50 mg/kg): <5 Mkmol/l | Glucose (index of urine) ([1]; dose 50 mg/kg): <5 mmol/L | Ketone bodies (index of urine) ([1]; dose 50 mg/kg): <1 mmol/L | Potassium (index of urine) ([1]; dose 50 mg/kg): 5.78 ± 1.7 g/L | Protein (index of urine) ([1]; dose 50 mg/kg): 0.69 ± 0.33 g/L | Sodium (index of urine) ([1]; dose 50 mg/kg): 1.7 ± 0.3 g/L | Urea (index of urine) ([1]; dose 50 mg/kg): 457 ± 144 mmol/L | Urobilinogen (index of urine) ([1]; dose 50 mg/kg): <16 Mkmol/l | pH (index of urine) ([1]; dose 50 mg/kg): 6.1 ± 0.3 | Bilirubin (index of urine) ([1]; dose 500 mg/kg): <5 Mkmol/l | Glucose (index of urine) ([1]; dose 500 mg/kg): <5 mmol/L | Ketone bodies (index of urine) ([1]; dose 500 mg/kg): <1 mmol/L | Potassium (index of urine) ([1]; dose 500 mg/kg): 6.24 ± 1.8 g/L | Protein (index of urine) ([1]; dose 500 mg/kg): 0.76 ± 0.31 g/L | Sodium (index of urine) ([1]; dose 500 mg/kg): 1.27 ± 0.3 g/L | Urea (index of urine) ([1]; dose 500 mg/kg): 492 ± 187 mmol/L | Urobilinogen (index of urine) ([1]; dose 500 mg/kg): <16 Mkmol/l | pH (index of urine) ([1]; dose 500 mg/kg): 6.2 ± 0.2 | ALT ([2]; suppositories 50 mg/kg): 10.84 ± 2.02 unit/l | AST ([2]; suppositories 50 mg/kg): 20.41 ± 3.06 unit/1 | Alkalinous phosphatase ([2]; suppositories 50 mg/kg): 42.12 ± 4.23 unit/1 | Bilirubin ([2]; suppositories 50 mg/kg): 44.38 ± 4.12 | Cholesterol ([2]; suppositories 50 mg/kg): 2.77 ± 0.71 mmol/L | Creatinine ([2]; suppositories 50 mg/kg): 47.38 ± 3.26 mkmol/l | Glucose ([2]; suppositories 50 mg/kg): 9.85 ± 0.37 mM | Total protein ([2]; suppositories 50 mg/kg): 87.34 ± 5.56 g/L | Urea ([2]; suppositories 50 mg/kg): 11.02 ± 0.73 | ALT ([2]; suppositories 500 mg/kg): 11.23 ± 1.70 unit/l | AST ([2]; suppositories 500 mg/kg): 20.13 ± 2.95 unit/1 | Alkalinous phosphatase ([2]; suppositories 500 mg/kg): 43.4 ± 2.12 unit/1 | Bilirubin ([2]; suppositories 500 mg/kg): 42.56 ± 7.56 | Cholesterol ([2]; suppositories 500 mg/kg): 2.96 ± 0.52 mmol/L | Creatinine ([2]; suppositories 500 mg/kg): 49.87 ± 8.12 mkmol/l | Glucose ([2]; suppositories 500 mg/kg): 10.2 ± 0.74 mM | Total protein ([2]; suppositories 500 mg/kg): 70.84 ± 7.47 g/L | Urea ([2]; suppositories 500 mg/kg): 11.30 ± 0.80
